The values below come from patent US8183048B2, “Assay for screening/ranking antioxidants based on their effects on membrane sterol lateral organization” (Temple University- Of the Commonwealth System of Higher …, priority 2007, dated 2012).

“And” between values parts separate entries of the source, which are not always exact repeats. Equal values may be shown once. “Also recorded” adds a separate entry of the source.

The nature of assay [1]: AAPH-induced DHE oxidation, antioxidant-induced lag phase vs sterol mol % (sterol superlattice assay). In kind it is biochemical. Here is the method: Two-component or multi-component models of large unilamellar vesicles (LUVs) containing DHE (dehydroergosterol) are prepared as described above. The sizes of LUVs are in the range of 100-800 nm in diameter. [Please quantify the term “large”]. A prooxidant or a free radical generator is added to a fluorescence cuvette containing LUVs that have been incubated with an antioxidant. In certain embodiments, sterol oxidation was induced by a water-soluble free radical generator, AAPH (2,2′-azobis(2-amidinopropane) dihydrochloride). […] Plotting the lag phase length (τ) (or the initial rate Ri, in the case of lacking lag phase) vs sterol mole fraction in the presence of low dose antioxidant, a biphasic change in (or Ri) at a given Cr (e.g., 20.0, 22.2, 25.0, 33.3, 40.0 and 50.0 mol % sterol) is observed (see FIGS. 4, 8, and 9). This experiment will be repeated at different antioxidant doses. A threshold antioxidant concentration (Cth) is the highest antioxidant concentration at which the biphasic change in τ with sterol mol % may still be detected. The τ, Ri, and Cth values will give information about the antioxidant activity or potency and side effects. The τ and Ri values will give information about the antioxidant activity or potency. […] The ratio of the Ri value in the presence of antioxidants to that in the absence of antioxidants (Ri/Rio) also reflects the potency of the antioxidant. […] The Cth value indicates the potential toxicity of the antioxidant. The lower the Cth value is, the higher the potential damage to cell membranes becomes. The Cth values will be determined based on the capability of the antioxidant to abolish the biphasic change of either τ or Ri with membrane sterol mole fraction. All of the antioxidants, either producing τ or Ri, can be compared and ranked based on the Cth values.
Dehydroergosterol (DHE; Sigma, St. Louis, Mo.) was first purified by HPLC, and then dissolved in CHCl3 to make a stock solution. The concentration of DHE stock solution was calculated by absorbance in dioxane at 326 nm, using an extinction coefficient equal to 10,600 M^−1 cm^−1. DMPC was purchased from Avanti Polar Lipids (Alabaster, Ala.). The concentration of DMPC in stock solution and in LUVs was determined by the method of Bartlett (61). The prooxidant AAPH ((2,2′-azobis(2-amidinopropane) dihydrochloride) was obtained from Aldrich (Milwaukee, Wis.). Ascorbic acid and ascorbyl palmitate were purchased from Sigma.
Calculated amounts of DMPC and DHE were pipetted into tubes and dried under N2 until there was no visible solvent; lipids were then dried overnight under vacuum. Next, lipids were reconstituted at 37° C. with 5.0 mL of 50 mM Tris-HCl buffer at pH 7.0 (containing 0.02% NaN3 and 0.1 mM EDTA), then flushed with N2, and vortexed for 2 min at 37° C. to form multilamellar vesicles (MLVs). The MLVs were cooled to 4° C. for 30 min and then incubated at 37° C. for 30 min. This cooling/heating cycle was repeated three times to ensure an even distribution of lipids within each monolayer of the vesicles. After being exposed to three cycles of heat/cold to allow for thorough mixing, vesicles were left for 4 days at room temperature to come to thermal equilibrium. LUVs were then prepared from MLVs by extrusion (Lipex Biomembranes Inc., Vancouver, BC, Canada). The MLVs were extruded at 37° C. 10 times through two stacked 200 nm Nucleopore polycarbonate filters (Costar) under nitrogen gas pressure to form homogeneous LUVs. To avoid auto-oxidation of sterol, the LUV samples were flushed with argon, sealed, and stored in a dessicator chamber under vacuum at room temperature for seven days prior to sterol oxidation measurements (50). During this time, phosphorus concentration was measured again to determine new phospholipid concentration after loss by extrusion (53).
A typical LUV sample set spanned a predicted critical sterol mole fraction (Cr) for maximal superlattice formation. […]

Assay [2] in a line: AAPH-induced sterol oxidation, initial rate (Ri) vs sterol mol %. The class given is biochemical. An excerpt: The main purpose of this assay is to determine the Cth value for the antioxidant ALA, which is both water and lipid soluble. […] Ri came from monitoring DHE fluorescence intensity after addition of AAPH. […] In this case (the right panel in the flow chart—FIG. 9), the initial rate of sterol oxidation (Ri), instead of the lag phase, is used as the parameter to reflect the potency of an antioxidant activity. […] The membrane system is: 1-palmitoyl-2-oleoyl-L-α-phosphatidylcholine (POPC)/porcine brain sphingomyelins (pSPMs)/DHE LUVs. This biphasic change is expected from the sterol superlattice theory and is consistent with our previous finding (43). […] In this case, the Cth value is determined to be >>5 mM, if there is any. Vertical bars are the standard deviations from three independently prepared samples. The experiment was carried out at 37-42° C.
The term “Ri” as used herein means the initial rate of sterol oxidation in sec^−1. Ri can be calculated as follows: Ri equals [(Normalized fluorescence intensity of DHE at time t) minus (normalized fluorescence intensity of DHE at time 0)] divided by (t−0). Initial rate of sterol oxidation is calculated from the slope of DHE fluorescence intensity decrease vs time. […] Each sample set spanning a critical mole fraction must be analyzed separately in order to get an accurate picture for that particular set of vesicles. […] One reason for these slight variations is due to the high sensitivity of fluorescence signals. Fluorescence intensity is a relative value, depending on the amount of fluorophore in the cuvette, sample mixing, temperature fluctuations, and quenching due to impurities in the sample. For this reason, each complete set is analyzed separately, but all sets are normalized so that they can be compared to each other. Each sample set is analyzed by examining the first five to ten minutes of fluorescence decay in a sequential manner. […] Within a sample set, the deviation from linearity can be determined, and the number of minutes that will be used to calculate the initial rate can be defined. […]

Where [3] appears, read: sample set 23.8-26.2 mol %, Cr 25.0 mol %, FIG. 5.
Setting [4] is: sample set 38.8-41.2 mol %, Cr 40.0 mol %, FIG. 6.

`O=C1O[C@H]([C@@H](O)CO)C(O)=C1O` [ascorbic acid]: the “Cth (threshold antioxidant concentration above which biphasic profile of lag phase at Cr is no longer observable)” value in assay [1] (sample set 18.8-21.2 mol % DHE in DMPC, Cr 20.0 mol %, FIG. 4) was at least 30 µM. Also, the results for the “Cth (biphasic change in lag phase with sterol content abolished)” value in assay [1] (setting [3]) and in assay [1] (setting [4]) were at least 30 µM and at least 120 µM, respectively.

On to `CCCCCCCCCCCCCCCC(=O)OC[C@H](O)[C@H]1OC(=O)C(O)=C1O` [ascorbyl palmitate], for which the “Cth (threshold antioxidant concentration for sterol superlattice disruption)” value in assay [1] (DMPC/DHE LUVs, 37° C., all three sample sets (Cr 20.0, 25.0, 40.0 mol %)) was 13 to 15 µM and 13.1 to 15.0 µM. The “lag phase length relative to ascorbic acid” value in assay [1] (same apparent dose, FIGS. 2 and 3) is recorded as “much more potent; also recorded: about three”. The “Cth (biphasic change in lag phase with sterol content abolished)” value in assay [1] (setting [3]) lay within 11.3 to 15.0 µM; in assay [1] (setting [4]), 13.1 to 15.0 µM. Besides, the “concentration at which the biphasic profile of lag phase is obliterated” value in assay [1] (sample set spanning Cr 20.0 mol % DHE, FIG. 4) is at least 15.0 µM; in assay [1] (sample set spanning Cr 25.0 mol % DHE, FIG. 5) it was at least 15.0 µM; in assay [1] (sample set spanning Cr 40.0 mol % DHE, FIG. 6) it was at least 15.0 µM.

As to `O=C(O)CCCCC1CCSS1` (stereo not drawn) [ALA, alpha lipoic acid], the “lag phase in AAPH-induced sterol oxidation” value in assay [2] (AAPH-induced DHE fluorescence decay) is on record as “does not generate a lag phase”. In assay [2] (AAPH-induced DHE oxidation, increasing ALA doses), the “effect on initial rate of sterol oxidation (Ri)” value is on record as “Ri decreases with increasing ALA doses; also recorded: dose-dependent decrease”. Moreover, the “Cth (from biphasic change of Ri with sterol content)” value in assay [2] (POPC/pSPMs/DHE LUVs, Cr 20.0 mol %, 37-42° C., FIG. 8) is listed as over 5 mM.
